{"source": "patent US11536729B2", "about": "“Method of identifying novel protein aggregation inhibitors based on chemical kinetics” (Cambridge Enterprise Limited, priority 2016, dated 2022)", "key": {"[1]": {"tested_on": "C. elegans GMC101 (Aβ-worm)", "assay": "NIAD-4 staining of amyloid aggregates in living C. elegans", "assay_type": "in vivo, Caenorhabditis elegans", "experimental": "Live transgenic animals were incubated with NIAD-4 over a range of concentrations and times, and it was empirically determined that incubation of living animals with 1 μM NIAD-4 (0.1% DMSO in M9 buffer) for four hours at room temperature gave robust and reproducible staining. After staining, animals were Let recover on NGM plates for about 24 hrs to allow destaining via normal metabolism. Stained animals were mounted on 2% agarose pads containing 40 mM NaN3 as anaesthetic on glass microscope slides for imaging. Images were captured with a Zeiss Axio Observer.D1 fluorescence microscope (Carl Zeiss Microscopy GmbH, Jena, Germany) with a 20× objective and a 49004 ET-CY3/TRITC filter (Chroma Technology Corp, Bellows Falls, Vt., USA). Fluorescence intensity was calculated using ImageJ software (National Institutes of Health, Bethesda, Md., USA), and then normalized as the corrected total cell fluorescence (CTCF). Only the head region was considered, due to the high background signal in the guts. All experiments were carried out in triplicate and the data from one representative experiment are shown. Statistical significance was determined using t tests."}, "Aβ42 fibrils": {"molecular_target": "T1, Aβ42 fibrils (Homo sapiens, UniProt P05067)", "T1 construct": "The recombinant Aβ (M1-42) peptide; made in house; host or cells: E. coli BL21 Gold (DE3)", "T1 sequence (P05067 672-713 limits assumed)": "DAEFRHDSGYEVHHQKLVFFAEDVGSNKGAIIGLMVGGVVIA", "assay": "Dot blot assay with fibril-specific OC antibody (label-free fibril formation)", "assay_type": "biochemical", "details": "2 μM Aβ42, 4-fold excess", "experimental": "Blotting was performed using either Aβ42 fibril-specific antibody (OC, Millipore) or Aβ42 sequence-specific antibody (W0-2, Millipore). […] Aβ42 aliquots were spotted onto a nitrocellulose membrane (0.2 μm, Whatman) and then the membranes were dried and then blocked with Blocking One (Nacalai tesque) before immuno-detection. OC and W0-2 were used according to the manufacturers instructions. Alexa Fluor® 488-conjugated secondary antibodies (Life technologies) were subsequently added and fluorescence detection was performed using Typhoon Trio Imager (GE Healthcare). […] For the calibration curve (FIG. 3d), a series of dilutions between 4 μM and 0.1 μM were performed on freshly prepared Aβ42 fibrils and 4 μL aliquots were deposited onto the same nitrocellulose membrane (0.2 μm, Whatman) as the one used for OC fibril-specific antibody. […] However, under these conditions we could not detect oligomers due to their very low concentration during Aβ42 aggregation even when depositing on the membrane volumes as high as 20 μL."}, "Aβ42": {"molecular_target": "T2, Aβ42 (Homo sapiens, UniProt P05067)", "T2 construct": "The recombinant Aβ (M1-42) peptide; made in house; host or cells: E. coli BL21 Gold (DE3)", "T2 sequence (P05067 671-713)": "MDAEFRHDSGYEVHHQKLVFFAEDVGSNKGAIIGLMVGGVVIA", "assay": "ThT-based Aβ42 aggregation kinetics under quiescent (unseeded) conditions", "assay_type": "biochemical", "experimental": "Solutions of monomeric peptides were prepared by dissolving the lyophilized Aβ42 peptide in 6 M GuHCl. Monomeric forms were purified from potential oligomeric species and salt using a Superdex 75 10/300 GL column (GE Healthcare) at a flowrate of 0.5 mL/min, and were eluted in 20 mM sodium phosphate buffer, pH 8 supplemented with 200 μM EDTA and 0.02% NaN3. The center of the peak was collected and the peptide concentration was determined from the absorbance of the integrated peak area using ε280=1400 l mol^−1 cm^−1. The obtained monomer was diluted with buffer to the desired concentration and supplemented with 20 μM Thioflavin T (ThT) from a 1 mM stock. All samples were prepared in low binding eppendorf tubes on ice using careful pipetting to avoid introduction of air bubbles. Each sample was then pipetted into multiple wells of a 96-well half-area, low-binding, clear bottom and PEG coating plate (Corning 3881), 80 μL per well.\nWe verified that the addition of 1% DMSO in the reaction mixture has no effect on Aβ42 aggregation.\nAssays were initiated by placing the 96-well plate at 37° C. under quiescent conditions in a plate reader (Fluostar Omega, Fluostar Optima or Fluostar Galaxy, BMGLabtech, Offenburg, Germany). The ThT fluorescence was measured through the bottom of the plate with a 440 nm excitation filter and a 480 nm emission filter. The ThT fluorescence was followed for three repeats of each sample.\nThe time evolution of the total fibril mass concentration, M(t), is described by the following integrated rate law (30, 32)\n(§1) [formula] where the kinetic parameters B±, C±, κ, κ∞ and ? are functions of the two ? combinations of the microscopic rate constants k+k2 and knk2, where kn, k+ and k2 are the primary nucleation, elongation and secondary nucleation rate constants, respectively.\nThe time evolution of the total fibril mass concentration, M(t), is described by the following integrated rate law\nas §1, with “two” for “two ?”, “respectively. Aβ42 alone in 1% DMSO was first modeled to obtain the k+k2 and knk2 combined microscopic rate constants.” for “respectively.”\nWith the introduction of different small molecules, the aggregation process can be inhibited by one or more individual microscopic reactions. Microscopic rate constants k+k2 and knk2 were obtained in the presence of the molecules, and compared to the initial values of Aβ42 alone. This comparison allows one to understand which rate was mainly perturbed, as well as the potency of the compounds (by relative changes of their microscopic rates) with respect to each other."}, "[2]": {"details": "2 μM Aβ42, 4-fold excess of compound"}}}
{"smiles": "C=C(c1ccc(C(=O)O)cc1)c1cc2c(cc1C)C(C)(C)CCC2(C)C", "note": "[bexarotene]", "values": [{"measurement": "time for which formation of Aβ42 fibrils was suppressed", "setting": "[1]; 10 μM", "result": "9 days of adulthood"}, {"measurement": "level of aggregates (NIAD-4 fluorescence)", "setting": "[1]; Aβ-worm model in the presence of bexarotene", "result": "essentially no aggregates being detected"}, {"measurement": "delay in the time required for half-completion of the aggregation process", "setting": "Aβ42 fibrils", "result": 2, "unit": "h"}, {"measurement": "increase of time to half-completion compared to Aβ42 alone", "setting": "Aβ42; [2]", "result": "factor of two"}, {"measurement": "time to half-completion of the aggregation reaction", "setting": "Aβ42; [2]", "result": "4.50 ± 0.06", "unit": "h"}, {"measurement": "time for which unseeded aggregation was completely inhibited", "setting": "Aβ42; 2 μM Aβ42, 10-fold excess", "result": 15, "unit": "h"}, {"measurement": "effect on secondary pathways (k2k+)", "setting": "Aβ42; 5 μM Aβ42, 5-25 μM bexarotene", "result": "no (or very little) detectable effect"}, {"measurement": "primary nucleation rate constant kn", "setting": "Aβ42; 5 μM Aβ42, 5-25 μM bexarotene", "result": "specifically decreased"}, {"measurement": "effect on Aβ42 aggregation", "setting": "Aβ42; increasing concentrations of bexarotene", "result": "progressive delay"}]}
